# Like-named read-outs stand apart in the source and are kept apart here.
# Columns and labels:
# [1] = system: Plasmodium falciparum 3D7 (CQ-sensitive); assay: In vitro antimalarial SYBR Green I fluorescence assay; assay type: cell-based; settings: for effect of substitution on Pf 3D7 potency, in words: SAR statement in text
# Pf PM-V = Pf PM-V (Plasmodium falciparum, UniProt Q8I6Z5); assay type: cell-based; settings: knockdown assay; data not shown
# PM-IX = target: T1, PM-IX (Plasmodium falciparum, UniProt Q8ILG2); assay type: cell-based; settings: western blot, substrate processing; data not shown
# T1 sequence (Q8ILG2 1-627): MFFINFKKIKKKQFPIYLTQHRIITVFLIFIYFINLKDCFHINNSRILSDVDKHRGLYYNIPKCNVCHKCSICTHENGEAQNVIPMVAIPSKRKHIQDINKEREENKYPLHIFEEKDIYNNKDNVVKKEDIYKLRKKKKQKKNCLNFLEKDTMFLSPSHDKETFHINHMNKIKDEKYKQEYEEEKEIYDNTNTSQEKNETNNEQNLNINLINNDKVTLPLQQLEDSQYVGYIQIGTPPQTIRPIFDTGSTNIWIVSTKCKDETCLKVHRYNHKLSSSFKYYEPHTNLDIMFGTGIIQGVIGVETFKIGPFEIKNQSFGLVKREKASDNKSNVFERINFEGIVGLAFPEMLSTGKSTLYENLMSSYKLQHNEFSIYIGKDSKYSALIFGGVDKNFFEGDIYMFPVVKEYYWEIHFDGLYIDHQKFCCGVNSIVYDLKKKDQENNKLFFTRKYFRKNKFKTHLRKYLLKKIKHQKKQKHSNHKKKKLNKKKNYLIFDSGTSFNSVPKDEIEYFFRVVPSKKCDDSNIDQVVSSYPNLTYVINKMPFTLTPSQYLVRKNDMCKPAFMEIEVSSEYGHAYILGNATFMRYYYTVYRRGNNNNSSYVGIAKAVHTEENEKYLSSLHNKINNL
# PM-X = PM-X (Plasmodium falciparum, UniProt Q8IAS0); assay type: cell-based; settings: western blot, substrate processing; data not shown
# PM-X, sequence (Q8IAS0 222-573): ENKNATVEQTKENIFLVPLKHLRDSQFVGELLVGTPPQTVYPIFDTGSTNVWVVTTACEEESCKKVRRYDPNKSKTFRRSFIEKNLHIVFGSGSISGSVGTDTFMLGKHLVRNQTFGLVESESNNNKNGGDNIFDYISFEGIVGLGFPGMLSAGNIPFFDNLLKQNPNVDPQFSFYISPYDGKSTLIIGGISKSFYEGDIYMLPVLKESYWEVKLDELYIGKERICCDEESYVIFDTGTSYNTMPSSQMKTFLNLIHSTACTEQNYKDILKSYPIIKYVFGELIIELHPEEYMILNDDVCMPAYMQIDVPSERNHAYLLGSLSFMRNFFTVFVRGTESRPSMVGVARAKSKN
# Cytotoxicity selectivity = assay type: cell-based
# [2] = Mouse liver microsome metabolic stability; settings: in words
# Pf plasmepsin II (PM-II) = Pf plasmepsin II (PM-II) (Plasmodium falciparum, UniProt Q8I6V3); assay: biochemical
# Pf plasmepsin II (PM-II), sequence (Q8I6V3 125-453): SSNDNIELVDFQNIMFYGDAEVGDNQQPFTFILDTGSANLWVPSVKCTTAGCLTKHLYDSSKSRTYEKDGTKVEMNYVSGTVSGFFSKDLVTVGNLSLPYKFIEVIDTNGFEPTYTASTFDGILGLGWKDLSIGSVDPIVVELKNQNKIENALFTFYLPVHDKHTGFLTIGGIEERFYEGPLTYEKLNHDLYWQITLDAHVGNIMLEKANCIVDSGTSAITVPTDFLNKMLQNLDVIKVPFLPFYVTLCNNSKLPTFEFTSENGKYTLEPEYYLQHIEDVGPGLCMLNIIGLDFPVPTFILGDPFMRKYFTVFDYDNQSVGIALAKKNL
# [3] = system: Plasmodium falciparum Dd2 (multi-drug resistant); assay: In vitro antimalarial SYBR Green I fluorescence assay; assay type: cell-based
# [4] = Plasmodium falciparum, 3D7, 72 h, read-out: Pf 3D7 IC50
# [5] = Plasmodium falciparum, 3D7, read-out: Pf 3D7 IC50 (side-by-side with CQ)
# Pf PM-V, sequence (Q8I6Z5 whole entry): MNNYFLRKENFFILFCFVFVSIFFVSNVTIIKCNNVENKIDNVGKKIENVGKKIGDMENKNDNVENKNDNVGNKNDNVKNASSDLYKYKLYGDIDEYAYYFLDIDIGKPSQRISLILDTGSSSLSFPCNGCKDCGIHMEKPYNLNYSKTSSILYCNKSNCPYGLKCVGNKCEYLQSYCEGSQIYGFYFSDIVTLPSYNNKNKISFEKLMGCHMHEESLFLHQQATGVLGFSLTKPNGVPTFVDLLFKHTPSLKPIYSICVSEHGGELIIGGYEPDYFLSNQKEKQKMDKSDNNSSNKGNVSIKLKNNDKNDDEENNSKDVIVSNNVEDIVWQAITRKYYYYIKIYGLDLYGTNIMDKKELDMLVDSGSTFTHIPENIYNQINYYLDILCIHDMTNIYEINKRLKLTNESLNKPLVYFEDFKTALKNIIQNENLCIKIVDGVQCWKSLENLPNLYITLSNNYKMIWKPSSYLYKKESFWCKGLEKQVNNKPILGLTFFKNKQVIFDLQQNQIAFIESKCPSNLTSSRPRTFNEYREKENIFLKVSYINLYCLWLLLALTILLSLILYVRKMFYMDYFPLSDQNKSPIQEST
compound,measurement,setting,value
COc1ccc(CNC(=O)[C@@H]2CNC[C@H]2c2ccc(C(F)(F)F)cc2)cc1 (racemic) [compound 6],increase in potency relative to H (13),"[1]; Pf 3D7, amide benzyl ring SAR",10 fold
same,IC50,[1]; [4],0.385 µM
same,inhibition of Pf PM-V,Pf PM-V,inactive
same,inhibition of PM-IX,PM-IX,inactive
same,inhibition of PM-X,PM-X,inactive
same,selectivity ratio,Cytotoxicity selectivity,100
same,metabolic stability profile in mouse liver microsomes,[2],improved
CN(C)c1ccc(CNC(=O)[C@H]2CNC[C@@H]2c2ccc(C(F)(F)F)nc2)cc1 (racemic) [compound 34],IC50,[1]; [4],0.23 µM
same,"effect of substitution on Pf 3D7 potency, in words",[1],without loss in potency
same,IC50,Pf plasmepsin II (PM-II),> 10 µM
"C[C@H](NC(=O)[C@H]1CNC[C@@H]1c1ccc(C(F)(F)F)cc1)c1ccc(N(C)C)cc1 [54b, (+)-(3R,4S)-N-[(1S)-1-[4-(dimethylamino)phenyl]ethyl]-4-[4-(trifluoromethyl)phenyl]pyrrolidine-3-carboxamide]",IC50,[1]; [4],0.051 µM
same,EC50,"[1]; Plasmodium falciparum, 3D7, read-out: EC50 against drug sensitive Plasmodium falciparum 3D7",0.046 µM
same,IC50,[1]; [5],0.046 ± 0.006 µM
same,EC50,"[3]; DD2, read-out: EC50 against drug resistant Dd2 strain",0.021 µM
"C[C@@H]1CC[C@H]2[C@@H](C)C(=O)O[C@@H]3O[C@@]4(C)CC[C@@H]1[C@]32OO4 [artemesinin, reference compound]",IC50,[1]; [4],0.033 ± 0.0006 µM
"CCN(CC)CCCC(C)Nc1ccnc2cc(Cl)ccc12 (stereo not drawn) [chloroquine, reference compound]",IC50,[1]; [4],0.054 ± 0.0004 µM
same,IC50,[1]; [5],0.038 ± 0.002 µM
same,IC50,"[3]; DD2, read-out: Pf Dd2 IC50 (side-by-side with CQ)",0.196 ± 0.014 µM
Cc1ccc(CNC(=O)[C@@H]2CNC[C@H]2c2ccc(C(F)(F)F)cc2)cc1 [compound 12],IC50,Pf plasmepsin II (PM-II),> 10 µM
CN(C)c1ccc(CNC(=O)[C@H]2CNC[C@@H]2c2ccc(C(F)(F)F)cc2)cc1 [compound 14],IC50,Pf plasmepsin II (PM-II),> 10 µM
CCN(CC)c1ccc(CNC(=O)[C@@H]2CNC[C@H]2c2ccc(C(F)(F)F)cc2)cc1 [compound 16],IC50,Pf plasmepsin II (PM-II),> 10 µM
CN(C)c1ccc(CNC(=O)[C@@H]2CNC[C@H]2c2ccc(C(F)(F)F)c(F)c2)cc1 [compound 24],IC50,Pf plasmepsin II (PM-II),> 10 µM
CN(C)c1ccc(CNC(=O)[C@@H]2CNC[C@H]2c2ccc(C(F)(F)F)c(Cl)c2)cc1 [compound 26],IC50,Pf plasmepsin II (PM-II),> 10 µM
CN(C)c1ccc(CNC(=O)[C@@H]2CNC[C@H]2c2ccc(Oc3ccccc3)cc2)cc1 [compound 30],"effect of substitution on Pf 3D7 potency, in words",[1],tolerated
same,IC50,Pf plasmepsin II (PM-II),> 10 µM
CN(C)c1ccc(CNC(=O)[C@H]2CNC[C@@H]2c2cnc(C(F)(F)F)nc2)cc1 [compound 35],"effect of substitution on Pf 3D7 potency, in words",[1],modest erosion of potency
"C[C@@H](NC(=O)[C@H]1CNC[C@@H]1c1ccc(C(F)(F)F)nc1)c1ccc(N(C)C)cc1 [compound 55, (+)-(3R,4S)-N-[(1R)-1-[4-(dimethylamino)phenyl]ethyl]-4-[6-(trifluoromethyl)pyridin-3-yl]pyrrolidine-3-carboxamide]",reduction / loss in potency relative to parent analog,"[1]; Pf 3D7, SAR comparison stated in text",> 30 fold
